ChEMBL document CHEMBL1145498, “A systematic interaction map of validated kinase inhibitors with Ser/Thr kinases” (Proc Natl Acad Sci U S A, 2007)

Assays:
[1] = molecular target: Calcium/calmodulin-dependent protein kinase kinase 2 (Homo sapiens, UniProt Q96RR4)
[2] = molecular target: Cyclin-dependent kinase-like 1 (Homo sapiens) (UniProt Q00532)
[3] = molecular target: Dual specificity protein kinase CLK2 (Homo sapiens) (UniProt P49760)
[4] = molecular target: Casein kinase I isoform gamma-3 (Homo sapiens) (UniProt Q9Y6M4)
Sequence of Casein kinase I isoform gamma-3 (Homo sapiens) (Q9Y6M4 whole entry, looked up, canonical isoform): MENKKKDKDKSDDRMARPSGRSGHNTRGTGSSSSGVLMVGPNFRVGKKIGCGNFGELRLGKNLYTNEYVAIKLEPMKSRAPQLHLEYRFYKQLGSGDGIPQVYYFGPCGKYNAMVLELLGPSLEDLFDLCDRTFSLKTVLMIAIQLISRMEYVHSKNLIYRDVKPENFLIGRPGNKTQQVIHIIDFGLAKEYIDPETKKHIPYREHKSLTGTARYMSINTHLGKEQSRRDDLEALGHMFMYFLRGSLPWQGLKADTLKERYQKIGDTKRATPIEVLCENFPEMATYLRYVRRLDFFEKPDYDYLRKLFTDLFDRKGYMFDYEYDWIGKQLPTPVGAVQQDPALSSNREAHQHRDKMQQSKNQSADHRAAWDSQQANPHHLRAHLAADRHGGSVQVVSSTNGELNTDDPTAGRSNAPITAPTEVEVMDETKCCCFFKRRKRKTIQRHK

[5] = molecular target: Glycogen synthase kinase-3 beta (Homo sapiens, UniProt P49841)
Sequence of Glycogen synthase kinase-3 beta (P49841 whole entry, looked up): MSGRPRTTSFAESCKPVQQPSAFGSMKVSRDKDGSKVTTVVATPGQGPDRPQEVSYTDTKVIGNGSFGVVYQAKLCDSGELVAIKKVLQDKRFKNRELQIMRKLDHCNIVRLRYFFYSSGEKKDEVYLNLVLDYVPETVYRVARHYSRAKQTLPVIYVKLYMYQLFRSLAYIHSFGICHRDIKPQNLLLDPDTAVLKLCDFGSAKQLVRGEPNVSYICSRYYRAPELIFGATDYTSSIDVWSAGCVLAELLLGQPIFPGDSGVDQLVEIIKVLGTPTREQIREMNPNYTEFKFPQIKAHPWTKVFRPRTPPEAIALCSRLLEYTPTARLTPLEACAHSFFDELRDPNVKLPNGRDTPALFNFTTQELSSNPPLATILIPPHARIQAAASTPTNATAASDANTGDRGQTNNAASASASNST

[6] = molecular target: Dual specificity mitogen-activated protein kinase kinase 2 (Homo sapiens, UniProt P36507)
Sequence of Dual specificity mitogen-activated protein kinase kinase 2 (P36507 whole entry): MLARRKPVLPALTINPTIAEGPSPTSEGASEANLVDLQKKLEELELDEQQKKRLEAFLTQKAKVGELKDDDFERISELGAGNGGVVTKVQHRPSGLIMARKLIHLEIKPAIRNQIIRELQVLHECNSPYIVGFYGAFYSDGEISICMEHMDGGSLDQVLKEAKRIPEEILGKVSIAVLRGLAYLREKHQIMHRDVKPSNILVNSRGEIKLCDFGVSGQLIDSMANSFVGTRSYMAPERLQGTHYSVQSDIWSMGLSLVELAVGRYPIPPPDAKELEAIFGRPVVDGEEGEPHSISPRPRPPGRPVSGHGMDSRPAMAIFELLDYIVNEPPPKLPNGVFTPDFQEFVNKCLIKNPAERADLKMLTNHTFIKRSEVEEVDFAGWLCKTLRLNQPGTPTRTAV

[7] = molecular target: T1, Dual specificity mitogen-activated protein kinase kinase 6 (Homo sapiens) (UniProt P52564)
T1 sequence (whole entry): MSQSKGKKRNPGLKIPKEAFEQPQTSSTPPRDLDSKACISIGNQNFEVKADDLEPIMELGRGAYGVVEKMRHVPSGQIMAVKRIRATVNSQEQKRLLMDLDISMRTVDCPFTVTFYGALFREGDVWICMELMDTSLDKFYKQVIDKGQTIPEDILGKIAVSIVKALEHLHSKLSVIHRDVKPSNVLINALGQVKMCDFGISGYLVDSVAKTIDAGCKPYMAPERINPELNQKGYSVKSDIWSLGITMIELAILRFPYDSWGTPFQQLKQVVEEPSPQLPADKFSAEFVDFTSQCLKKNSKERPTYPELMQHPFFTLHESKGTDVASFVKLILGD

[8] = molecular target: Serine/threonine-protein kinase Nek6 (Homo sapiens) (UniProt Q9HC98)
Sequence of Serine/threonine-protein kinase Nek6 (Homo sapiens) (Q9HC98 whole entry): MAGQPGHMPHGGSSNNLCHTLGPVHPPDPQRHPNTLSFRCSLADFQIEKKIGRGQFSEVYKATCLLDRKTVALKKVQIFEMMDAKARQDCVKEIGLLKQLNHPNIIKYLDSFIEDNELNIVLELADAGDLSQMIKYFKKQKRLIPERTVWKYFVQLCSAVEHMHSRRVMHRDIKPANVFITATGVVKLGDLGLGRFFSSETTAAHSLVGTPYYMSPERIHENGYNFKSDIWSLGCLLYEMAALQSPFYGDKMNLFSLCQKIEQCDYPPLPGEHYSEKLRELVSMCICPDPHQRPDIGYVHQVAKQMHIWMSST

[9] = molecular target: STE20-like serine/threonine-protein kinase (Homo sapiens) (UniProt Q9H2G2)
Sequence of STE20-like serine/threonine-protein kinase (Homo sapiens) (Q9H2G2 whole entry, looked up): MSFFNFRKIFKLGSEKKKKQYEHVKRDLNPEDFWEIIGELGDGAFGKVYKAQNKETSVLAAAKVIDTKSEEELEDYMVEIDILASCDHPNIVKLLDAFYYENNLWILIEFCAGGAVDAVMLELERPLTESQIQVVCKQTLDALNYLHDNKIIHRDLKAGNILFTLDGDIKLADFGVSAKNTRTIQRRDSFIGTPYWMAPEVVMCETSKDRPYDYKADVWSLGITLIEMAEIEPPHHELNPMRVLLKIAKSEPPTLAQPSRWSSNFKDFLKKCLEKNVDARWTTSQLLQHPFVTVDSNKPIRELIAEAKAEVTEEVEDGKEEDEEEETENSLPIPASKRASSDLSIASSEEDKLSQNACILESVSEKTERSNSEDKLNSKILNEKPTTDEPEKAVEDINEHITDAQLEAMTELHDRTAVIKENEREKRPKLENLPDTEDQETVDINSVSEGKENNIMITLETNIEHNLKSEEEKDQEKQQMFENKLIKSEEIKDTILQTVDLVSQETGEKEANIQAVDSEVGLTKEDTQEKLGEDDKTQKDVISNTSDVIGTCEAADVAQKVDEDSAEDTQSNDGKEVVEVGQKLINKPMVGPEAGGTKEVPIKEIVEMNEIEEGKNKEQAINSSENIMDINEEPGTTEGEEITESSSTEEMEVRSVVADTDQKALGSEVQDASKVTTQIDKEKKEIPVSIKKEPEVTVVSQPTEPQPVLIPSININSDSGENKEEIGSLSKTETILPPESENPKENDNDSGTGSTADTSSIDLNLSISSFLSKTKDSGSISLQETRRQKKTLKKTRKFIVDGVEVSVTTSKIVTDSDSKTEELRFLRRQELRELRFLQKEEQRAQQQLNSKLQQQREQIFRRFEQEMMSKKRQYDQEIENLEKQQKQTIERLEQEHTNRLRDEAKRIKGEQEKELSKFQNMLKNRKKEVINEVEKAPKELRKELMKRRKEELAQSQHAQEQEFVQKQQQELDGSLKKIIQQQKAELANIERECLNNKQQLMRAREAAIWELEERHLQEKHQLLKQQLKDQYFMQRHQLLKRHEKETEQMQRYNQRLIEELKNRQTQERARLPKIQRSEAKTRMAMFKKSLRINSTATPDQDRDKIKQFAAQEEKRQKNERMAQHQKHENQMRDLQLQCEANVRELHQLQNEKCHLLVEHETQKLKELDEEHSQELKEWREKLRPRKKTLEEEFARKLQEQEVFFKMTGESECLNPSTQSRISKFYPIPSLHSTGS

[10] = molecular target: T2, Serine/threonine-protein kinase 4 (Homo sapiens) (UniProt Q13043)
T2 sequence (whole entry): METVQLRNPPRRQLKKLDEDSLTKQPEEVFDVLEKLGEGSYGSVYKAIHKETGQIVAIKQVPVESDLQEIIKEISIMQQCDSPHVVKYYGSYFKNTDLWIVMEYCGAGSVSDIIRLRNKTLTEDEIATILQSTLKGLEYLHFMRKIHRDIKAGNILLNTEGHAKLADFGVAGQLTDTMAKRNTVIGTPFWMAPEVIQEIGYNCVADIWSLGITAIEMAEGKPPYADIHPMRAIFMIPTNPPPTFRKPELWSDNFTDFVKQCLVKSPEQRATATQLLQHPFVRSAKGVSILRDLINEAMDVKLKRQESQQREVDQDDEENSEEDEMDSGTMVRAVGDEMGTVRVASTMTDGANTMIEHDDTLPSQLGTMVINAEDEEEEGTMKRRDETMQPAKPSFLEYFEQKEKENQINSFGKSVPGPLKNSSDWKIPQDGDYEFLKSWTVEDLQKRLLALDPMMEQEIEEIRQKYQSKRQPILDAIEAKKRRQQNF

Sequence of Calcium/calmodulin-dependent protein kinase kinase 2 (Q96RR4 2-588 limits assumed): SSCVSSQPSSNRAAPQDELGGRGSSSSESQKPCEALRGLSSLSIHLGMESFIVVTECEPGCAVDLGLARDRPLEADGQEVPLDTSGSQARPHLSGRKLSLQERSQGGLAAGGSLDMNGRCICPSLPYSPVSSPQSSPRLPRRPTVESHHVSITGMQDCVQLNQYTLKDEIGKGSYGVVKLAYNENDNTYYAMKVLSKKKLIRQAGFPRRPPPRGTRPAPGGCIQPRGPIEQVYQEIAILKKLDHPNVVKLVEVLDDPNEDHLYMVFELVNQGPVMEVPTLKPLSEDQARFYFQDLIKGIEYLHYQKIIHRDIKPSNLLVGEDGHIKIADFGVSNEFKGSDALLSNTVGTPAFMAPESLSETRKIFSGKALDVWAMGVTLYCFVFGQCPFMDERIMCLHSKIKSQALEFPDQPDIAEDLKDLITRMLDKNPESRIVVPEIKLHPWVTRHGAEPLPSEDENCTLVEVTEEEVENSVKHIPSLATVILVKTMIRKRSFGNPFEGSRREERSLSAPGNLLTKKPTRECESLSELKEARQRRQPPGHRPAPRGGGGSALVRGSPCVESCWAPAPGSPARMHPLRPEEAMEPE
Sequence of Cyclin-dependent kinase-like 1 (Homo sapiens) (Q00532 whole entry): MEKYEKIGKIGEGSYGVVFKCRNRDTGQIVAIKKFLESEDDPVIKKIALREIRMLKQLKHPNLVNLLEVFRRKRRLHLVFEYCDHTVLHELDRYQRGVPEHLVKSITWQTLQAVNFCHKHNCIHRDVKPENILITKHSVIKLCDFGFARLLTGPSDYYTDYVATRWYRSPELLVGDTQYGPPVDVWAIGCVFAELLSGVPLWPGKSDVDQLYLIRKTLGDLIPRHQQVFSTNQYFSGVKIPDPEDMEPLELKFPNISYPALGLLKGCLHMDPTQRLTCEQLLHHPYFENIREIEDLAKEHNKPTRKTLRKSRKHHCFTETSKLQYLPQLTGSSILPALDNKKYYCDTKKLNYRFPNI
Sequence of Dual specificity protein kinase CLK2 (Homo sapiens) (P49760 whole entry, looked up, canonical isoform): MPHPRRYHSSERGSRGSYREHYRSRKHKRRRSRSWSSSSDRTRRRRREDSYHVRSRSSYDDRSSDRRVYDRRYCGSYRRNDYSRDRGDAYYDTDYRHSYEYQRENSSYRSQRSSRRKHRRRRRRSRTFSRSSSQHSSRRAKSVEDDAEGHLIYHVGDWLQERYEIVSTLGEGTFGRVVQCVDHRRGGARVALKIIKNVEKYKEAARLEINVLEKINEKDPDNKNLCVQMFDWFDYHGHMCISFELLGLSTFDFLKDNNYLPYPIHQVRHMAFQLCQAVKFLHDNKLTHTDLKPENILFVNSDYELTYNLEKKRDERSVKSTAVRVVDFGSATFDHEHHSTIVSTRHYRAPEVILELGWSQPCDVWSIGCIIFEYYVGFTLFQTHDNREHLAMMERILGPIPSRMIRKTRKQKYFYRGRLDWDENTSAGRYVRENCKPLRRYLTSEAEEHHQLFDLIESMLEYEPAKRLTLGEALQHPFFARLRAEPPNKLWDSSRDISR

For `Cc1c2ccncc2c(C)c2c1[nH]c1ccccc12` [ELLIPTECINE], the ΔTm [1] was 1.3 °C, the ΔTm [2] was 0.7 °C and the ΔTm [3] was 3.3 °C. The ΔTm [4] was 0.7 °C, the ΔTm [5] was 5.6 °C and the ΔTm [6] was 1 °C. It also gave a ΔTm [7] of 6.3 °C, a ΔTm [8] of 2.5 °C and a ΔTm [9] of 4.1 °C. It also gave a ΔTm [10] of 4 °C.
`CCOC(=O)c1c(C)[nH]c(/C=C2\C(=O)Nc3ccccc32)c1C` was tested, and the ΔTm [1] was 1.4 °C, the ΔTm [2] was 0.5 °C and the ΔTm [3] was 0.6 °C. It also gave a ΔTm [4] of 0.3 °C, a ΔTm [5] of 2.3 °C and a ΔTm [6] of 0.4 °C. For the same compound, the ΔTm [7] was 0 °C, the ΔTm [8] was 0.1 °C and the ΔTm [9] was 1.6 °C. The ΔTm [10] was 3 °C.
Work on `O=C(Nc1cccc(Nc2cc(Nc3cccc(C(F)(F)F)c3)ncn2)c1)C1CC1` yielded a ΔTm [1] of 1.7 °C, a ΔTm [2] of 1.5 °C and a ΔTm [3] of 0.9 °C. For the same compound, the ΔTm [4] was 0.2 °C, the ΔTm [5] was 1.1 °C and the ΔTm [6] was 1 °C. For the same compound, the ΔTm [7] was 2.1 °C, the ΔTm [8] was -0.4 °C and the ΔTm [9] was 3.2 °C. For the same compound, the ΔTm [10] was 1.4 °C.
In the case of `O=c1c(O)c(-c2ccc(O)c(O)c2)oc2cc(O)cc(O)c12` [QUERCETIN], the ΔTm [1] is reported as 5.5 °C, the ΔTm [2] is reported as 1.6 °C and the ΔTm [3] is reported as 4.9 °C. For the same compound, the ΔTm [4] was 2.9 °C, the ΔTm [5] was 7.8 °C and the ΔTm [6] was 2.4 °C. The ΔTm [7] was 3.6 °C, the ΔTm [8] was 1.6 °C and the ΔTm [9] was 5.7 °C. The ΔTm [10] was 5.4 °C.
With `COc1cc(O)c2c(c1)oc(=O)c1c3cc(O)c(O)cc3oc21` [WEDELOLACTONE] the ΔTm [1] was 2.3 °C, the ΔTm [2] was -0.3 °C and the ΔTm [3] was 1.2 °C. It also gave a ΔTm [4] of 1.5 °C, a ΔTm [5] of -0.4 °C and a ΔTm [6] of 0.1 °C. The ΔTm [7] was 0.2 °C, the ΔTm [8] was 0.4 °C and the ΔTm [9] was 1.3 °C. The ΔTm [10] was 2.4 °C.
In the case of `COc1ccc(S(=O)(=O)N(CCO)c2ccccc2CN(C)C/C=C/c2ccc(Cl)cc2)cc1`, the ΔTm [1] is reported as 0 °C, the ΔTm [2] is reported as -1.2 °C and the ΔTm [3] is reported as -0.3 °C. It also gave a ΔTm [4] of 0 °C, a ΔTm [5] of 0 °C and a ΔTm [6] of -0.2 °C. The ΔTm [7] was 0.4 °C, the ΔTm [8] was 0.3 °C and the ΔTm [9] was 1.1 °C. The ΔTm [10] was -0.2 °C.
With `O=c1cc(N2CCOCC2)oc2c1ccc1ccccc12` the ΔTm [1] was -0.3 °C, the ΔTm [2] was 0.1 °C and the ΔTm [3] was 0.8 °C. For the same compound, the ΔTm [4] was 0 °C, the ΔTm [5] was 1.1 °C and the ΔTm [6] was 0.1 °C. For the same compound, the ΔTm [7] was 0 °C, the ΔTm [8] was -0.2 °C and the ΔTm [9] was 0.2 °C. It also gave a ΔTm [10] of 0.2 °C.
`O=C(Nc1cccc(Nc2nccc(Nc3cccc(C(F)(F)F)c3)n2)c1)C1CC1` [ANILINOPYRIMIDINE1] was tested, and the ΔTm [1] was 2 °C, the ΔTm [2] was 1.6 °C and the ΔTm [3] was 0.6 °C. The ΔTm [4] was 2.2 °C, the ΔTm [5] was 1.1 °C and the ΔTm [6] was 0.8 °C. The ΔTm [7] was 0.2 °C, the ΔTm [8] was 1.7 °C and the ΔTm [9] was 4.1 °C. The ΔTm [10] was 0.9 °C.
`O=C(O)c1cc(N(Cc2ccccc2O)Cc2cc(O)ccc2O)ccc1O` [LAVENDUSTIN A] gave a ΔTm [1] of 0.5 °C, a ΔTm [2] of -0.3 °C and a ΔTm [3] of 0.5 °C. For the same compound, the ΔTm [4] was 0.8 °C, the ΔTm [5] was -0.1 °C and the ΔTm [6] was 0.5 °C. The ΔTm [7] was -1.1 °C, the ΔTm [8] was 0.4 °C and the ΔTm [9] was -0.7 °C. For the same compound, the ΔTm [10] was 0.5 °C.
In the case of `COc1cc(OC)c(/C=C2\C(=O)Nc3ccccc32)c(OC)c1`, the ΔTm [1] is reported as 0.4 °C, the ΔTm [2] is reported as -0.5 °C and the ΔTm [3] is reported as 0.3 °C. The ΔTm [4] was 0.5 °C, the ΔTm [5] was 0.4 °C and the ΔTm [6] was -0.4 °C. The ΔTm [7] was 0 °C, the ΔTm [8] was 0 °C and the ΔTm [9] was 0.1 °C. For the same compound, the ΔTm [10] was -0.1 °C.
Work on `C=CNC#N` yielded a ΔTm [1] of 0.9 °C, a ΔTm [2] of -0.1 °C and a ΔTm [3] of 0.6 °C. For the same compound, the ΔTm [4] was 0.8 °C, the ΔTm [5] was 0.5 °C and the ΔTm [6] was 1.8 °C. The ΔTm [7] was 0.3 °C, the ΔTm [8] was -0.2 °C and the ΔTm [9] was 0.1 °C. The ΔTm [10] was 1.9 °C.
`Cc1cc(Nc2nc(-c3ccccc3)nc3ccccc23)n[nH]1` gave a ΔTm [1] of 2 °C, a ΔTm [2] of 1.5 °C and a ΔTm [3] of 2.8 °C. The ΔTm [4] was 2.8 °C, the ΔTm [5] was 8.6 °C and the ΔTm [6] was 3.2 °C. The ΔTm [7] was 2.3 °C, the ΔTm [8] was 0.4 °C and the ΔTm [9] was 7.1 °C. For the same compound, the ΔTm [10] was 7.4 °C.
Compound `N#CC(C#N)=Cc1ccc(O)c(O)c1` [TYRPHOSTIN 23] has a ΔTm [1] of -0.7 °C, a ΔTm [2] of -0.1 °C and a ΔTm [3] of 0.1 °C. For the same compound, the ΔTm [4] was 0.3 °C, the ΔTm [5] was 0.8 °C and the ΔTm [6] was 0.1 °C. The ΔTm [7] was 0.2 °C, the ΔTm [8] was 0.6 °C and the ΔTm [9] was 0.6 °C. The ΔTm [10] was 0.6 °C.
